# Measured values: ChEMBL document CHEMBL3611970, “Synthesis and evaluation of isatin-β-thiosemicarbazones as novel agents against antibiotic-resistant Gram-positive bacterial species” (2015)
# Columns and labels:
# Type in all cases: functional
# Staphylococcus aureus [1] = test: Antimicrobial activity against methicillin-resistant Staphylococcus aureus 309-1 clinical isolate after 16 hrs by broth microdilution method; conditions: 309-1, 16 h
# Staphylococcus aureus [2] = test: Antimicrobial activity against methicillin-resistant Staphylococcus aureus 6281 clinical isolate after 16 hrs by broth microdilution method; conditions: Staphylococcus aureus, 6281, 16 h
# Staphylococcus aureus [3] = test: Antimicrobial activity against methicillin-resistant Staphylococcus aureus 309-8 clinical isolate after 16 hrs by broth microdilution method; conditions: 309-8, 16 h
# Pseudomonas aeruginosa = test: Antimicrobial activity against Pseudomonas aeruginosa PAO1 after 16 hrs by broth microdilution method; conditions: PAO1, 16 h
# Staphylococcus aureus [4] = test: Antimicrobial activity against methicillin-resistant Staphylococcus aureus Chaoyang clinical isolate after 16 hrs by broth microdilution method
# Klebsiella pneumoniae = test: Antimicrobial activity against Klebsiella pneumoniae KP-249 clinical isolate after 16 hrs by broth microdilution method; conditions: KP-249, 16 h
# Staphylococcus aureus [5] = test: Antimicrobial activity against methicillin-resistant Staphylococcus aureus 8-24 clinical isolate after 16 hrs by broth microdilution method; conditions: 8-24, 16 h
# Enterococcus faecalis [6] = test: Antimicrobial activity against Enterococcus faecalis VRE-309 after 16 hrs by broth microdilution method; conditions: VRE-309, 16 h
# Enterococcus faecalis [7] = test: Antimicrobial activity against vancomycin-susceptible Enterococcus faecalis after 16 hrs by broth microdilution method
# Staphylococcus aureus [8] = test: Antimicrobial activity against methicillin-resistant Staphylococcus aureus 309-7 clinical isolate after 16 hrs by broth microdilution method; conditions: 309-7, 16 h
# Staphylococcus aureus [9] = test: Antimicrobial activity against methicillin-resistant Staphylococcus aureus 309-3 clinical isolate after 16 hrs by broth microdilution method; conditions: 309-3, 16 h
# Staphylococcus aureus [10] = test: Antimicrobial activity against methicillin-resistant Staphylococcus aureus 309-6 clinical isolate after 16 hrs by broth microdilution method; conditions: 309-6, 16 h
# Staphylococcus aureus [11] = test: Antimicrobial activity against methicillin-resistant Staphylococcus aureus 8-21 clinical isolate after 16 hrs by broth microdilution method; conditions: 8-21, 16 h
# Staphylococcus aureus [12] = test: Antimicrobial activity against Staphylococcus aureus ATCC 6538 after 16 hrs by broth microdilution method; conditions: ATCC 6538, 16 h
# Bacillus spizizenii = test: Antimicrobial activity against Bacillus subtilis ATCC 6633 after 16 hrs by broth microdilution method; conditions: ATCC 6633, 16 h
# Staphylococcus aureus [13] = test: Antimicrobial activity against methicillin-resistant Staphylococcus aureus 309-4 clinical isolate after 16 hrs by broth microdilution method; conditions: 309-4, 16 h
# Staphylococcus aureus [14] = test: Antimicrobial activity against methicillin-resistant Staphylococcus aureus 6-42 clinical isolate after 16 hrs by broth microdilution method; conditions: 6-42, 16 h
smiles,measurement,setting,value
COc1ccc(NC(=S)N/N=C2\C(=O)Nc3c(F)cccc32)cc1,MIC,Staphylococcus aureus [1],3.12 µg/mL
same,MIC,Staphylococcus aureus [2],6.25 µg/mL
same,MIC,Staphylococcus aureus [3],3.12 µg/mL
same,MIC,Pseudomonas aeruginosa,> 100 µg/mL
same,MIC,Staphylococcus aureus [4],1.56 µg/mL
same,MIC,Klebsiella pneumoniae,> 100 µg/mL
same,MIC,Staphylococcus aureus [5],3.12 µg/mL
same,MIC,Enterococcus faecalis [6],> 100 µg/mL
same,MIC,Enterococcus faecalis [7],> 100 µg/mL
same,MIC,Staphylococcus aureus [8],1.56 µg/mL
same,MIC,Staphylococcus aureus [9],3.12 µg/mL
same,MIC,Staphylococcus aureus [10],3.12 µg/mL
same,MIC,Staphylococcus aureus [11],3.12 µg/mL
same,MIC,Staphylococcus aureus [12],3.12 µg/mL
same,MIC,Bacillus spizizenii,1.56 µg/mL
same,MIC,Staphylococcus aureus [13],3.12 µg/mL
same,MIC,Staphylococcus aureus [14],3.12 µg/mL
O=C1Nc2c(Cl)cccc2/C1=N/NC(=S)Nc1cccc(F)c1,MIC,Staphylococcus aureus [1],1.56 µg/mL
same,MIC,Staphylococcus aureus [2],3.12 µg/mL
same,MIC,Staphylococcus aureus [3],1.56 µg/mL
same,MIC,Pseudomonas aeruginosa,> 100 µg/mL
same,MIC,Staphylococcus aureus [4],0.39 µg/mL
same,MIC,Klebsiella pneumoniae,> 100 µg/mL
same,MIC,Staphylococcus aureus [5],1.56 µg/mL
same,MIC,Enterococcus faecalis [6],1.56 µg/mL
same,MIC,Enterococcus faecalis [7],3.12 µg/mL
same,MIC,Staphylococcus aureus [8],0.78 µg/mL
same,MIC,Staphylococcus aureus [9],1.56 µg/mL
same,MIC,Staphylococcus aureus [10],1.56 µg/mL
same,MIC,Staphylococcus aureus [11],1.56 µg/mL
same,MIC,Staphylococcus aureus [12],1.56 µg/mL
same,MIC,Bacillus spizizenii,≤ 0.78 µg/mL
same,MIC,Staphylococcus aureus [13],0.78 µg/mL
same,MIC,Staphylococcus aureus [14],0.78 µg/mL
COc1ccc(NC(=S)N/N=C2\C(=O)Nc3c(Cl)cccc32)cc1,MIC,Staphylococcus aureus [1],3.12 µg/mL
same,MIC,Staphylococcus aureus [2],6.25 µg/mL
same,MIC,Staphylococcus aureus [3],3.12 µg/mL
same,MIC,Pseudomonas aeruginosa,> 100 µg/mL
same,MIC,Staphylococcus aureus [4],1.56 µg/mL
same,MIC,Klebsiella pneumoniae,> 100 µg/mL
same,MIC,Staphylococcus aureus [5],3.12 µg/mL
same,MIC,Enterococcus faecalis [6],> 100 µg/mL
same,MIC,Enterococcus faecalis [7],> 100 µg/mL
same,MIC,Staphylococcus aureus [8],1.56 µg/mL
same,MIC,Staphylococcus aureus [9],3.12 µg/mL
same,MIC,Staphylococcus aureus [10],6.25 µg/mL
same,MIC,Staphylococcus aureus [11],3.12 µg/mL
same,MIC,Staphylococcus aureus [12],6.25 µg/mL
same,MIC,Bacillus spizizenii,≤ 0.78 µg/mL
same,MIC,Staphylococcus aureus [13],1.56 µg/mL
same,MIC,Staphylococcus aureus [14],1.56 µg/mL
COc1ccccc1NC(=S)N/N=C1\C(=O)Nc2c(Br)cccc21,MIC,Staphylococcus aureus [1],> 100 µg/mL
same,MIC,Staphylococcus aureus [2],> 100 µg/mL
same,MIC,Staphylococcus aureus [3],> 100 µg/mL
same,MIC,Pseudomonas aeruginosa,> 100 µg/mL
same,MIC,Staphylococcus aureus [4],25 µg/mL
same,MIC,Klebsiella pneumoniae,> 100 µg/mL
same,MIC,Staphylococcus aureus [5],> 100 µg/mL
same,MIC,Enterococcus faecalis [6],> 100 µg/mL
same,MIC,Enterococcus faecalis [7],> 100 µg/mL
same,MIC,Staphylococcus aureus [8],> 100 µg/mL
same,MIC,Staphylococcus aureus [9],> 100 µg/mL
same,MIC,Staphylococcus aureus [10],> 100 µg/mL
same,MIC,Staphylococcus aureus [11],> 100 µg/mL
same,MIC,Staphylococcus aureus [12],> 100 µg/mL
same,MIC,Bacillus spizizenii,25 µg/mL
same,MIC,Staphylococcus aureus [13],> 100 µg/mL
same,MIC,Staphylococcus aureus [14],> 100 µg/mL
O=C1Nc2c(Br)cccc2/C1=N/NC(=S)Nc1cccc(F)c1,MIC,Staphylococcus aureus [1],0.78 µg/mL
same,MIC,Staphylococcus aureus [2],1.56 µg/mL
same,MIC,Staphylococcus aureus [3],0.78 µg/mL
same,MIC,Pseudomonas aeruginosa,> 100 µg/mL
same,MIC,Staphylococcus aureus [4],0.39 µg/mL
same,MIC,Klebsiella pneumoniae,> 100 µg/mL
same,MIC,Staphylococcus aureus [5],0.78 µg/mL
same,MIC,Enterococcus faecalis [6],1.56 µg/mL
same,MIC,Enterococcus faecalis [7],3.12 µg/mL
same,MIC,Staphylococcus aureus [8],0.39 µg/mL
same,MIC,Staphylococcus aureus [9],0.78 µg/mL
same,MIC,Staphylococcus aureus [10],1.56 µg/mL
same,MIC,Staphylococcus aureus [11],0.78 µg/mL
same,MIC,Staphylococcus aureus [12],1.56 µg/mL
same,MIC,Bacillus spizizenii,≤ 0.78 µg/mL
same,MIC,Staphylococcus aureus [13],0.78 µg/mL
same,MIC,Staphylococcus aureus [14],0.78 µg/mL
O=C1Nc2c(Br)cccc2/C1=N/NC(=S)Nc1cccc(Cl)c1,MIC,Staphylococcus aureus [1],1.56 µg/mL
same,MIC,Staphylococcus aureus [2],1.56 µg/mL
same,MIC,Staphylococcus aureus [3],1.56 µg/mL
same,MIC,Pseudomonas aeruginosa,> 100 µg/mL
same,MIC,Staphylococcus aureus [4],0.39 µg/mL
same,MIC,Klebsiella pneumoniae,> 100 µg/mL
same,MIC,Staphylococcus aureus [5],1.56 µg/mL
same,MIC,Enterococcus faecalis [6],1.56 µg/mL
same,MIC,Enterococcus faecalis [7],3.12 µg/mL
same,MIC,Staphylococcus aureus [8],0.78 µg/mL
same,MIC,Staphylococcus aureus [9],1.56 µg/mL
same,MIC,Staphylococcus aureus [10],1.56 µg/mL
same,MIC,Staphylococcus aureus [11],1.56 µg/mL
same,MIC,Staphylococcus aureus [12],1.56 µg/mL
same,MIC,Bacillus spizizenii,≤ 0.78 µg/mL
same,MIC,Staphylococcus aureus [13],0.78 µg/mL
same,MIC,Staphylococcus aureus [14],0.78 µg/mL
O=C1Nc2c(Br)cccc2/C1=N/NC(=S)Nc1ccc(Br)cc1,MIC,Staphylococcus aureus [1],1.56 µg/mL
same,MIC,Staphylococcus aureus [2],3.12 µg/mL
same,MIC,Staphylococcus aureus [3],1.56 µg/mL
same,MIC,Pseudomonas aeruginosa,> 100 µg/mL
same,MIC,Staphylococcus aureus [4],0.39 µg/mL
same,MIC,Klebsiella pneumoniae,> 100 µg/mL
same,MIC,Staphylococcus aureus [5],1.56 µg/mL
same,MIC,Enterococcus faecalis [6],1.56 µg/mL
same,MIC,Enterococcus faecalis [7],3.12 µg/mL
same,MIC,Staphylococcus aureus [8],0.78 µg/mL
same,MIC,Staphylococcus aureus [9],1.56 µg/mL
same,MIC,Staphylococcus aureus [10],1.56 µg/mL
same,MIC,Staphylococcus aureus [11],1.56 µg/mL
same,MIC,Staphylococcus aureus [12],3.12 µg/mL
same,MIC,Bacillus spizizenii,1.56 µg/mL
same,MIC,Staphylococcus aureus [13],0.78 µg/mL
same,MIC,Staphylococcus aureus [14],0.78 µg/mL
COc1ccc(NC(=S)N/N=C2\C(=O)Nc3c(Br)cccc32)cc1,MIC,Staphylococcus aureus [1],1.56 µg/mL
same,MIC,Staphylococcus aureus [2],6.25 µg/mL
same,MIC,Staphylococcus aureus [3],1.56 µg/mL
same,MIC,Pseudomonas aeruginosa,> 100 µg/mL
same,MIC,Staphylococcus aureus [4],0.78 µg/mL
same,MIC,Klebsiella pneumoniae,> 100 µg/mL
same,MIC,Staphylococcus aureus [5],1.56 µg/mL
same,MIC,Enterococcus faecalis [6],> 100 µg/mL
same,MIC,Enterococcus faecalis [7],> 100 µg/mL
same,MIC,Staphylococcus aureus [8],0.78 µg/mL
same,MIC,Staphylococcus aureus [9],3.12 µg/mL
same,MIC,Staphylococcus aureus [10],6.25 µg/mL
same,MIC,Staphylococcus aureus [11],1.56 µg/mL
same,MIC,Staphylococcus aureus [12],6.25 µg/mL
same,MIC,Bacillus spizizenii,≤ 0.78 µg/mL
same,MIC,Staphylococcus aureus [13],1.56 µg/mL
same,MIC,Staphylococcus aureus [14],0.78 µg/mL
